Data taken from ChEMBL document CHEMBL1201862, “PubChem BioAssay data set” (2004).
Active and inactive are the calls of the source.

Legend:
[1] = target: T1, Luciferin 4-monooxygenase (Photinus pyralis, UniProt P08659); test: inhibition of purified Photinus pyralis luciferase – biochemical, luminescence, dose response (AID 1891)
Streptokinase A [2] = target: T2, Streptokinase A (Streptococcus pyogenes serotype M1, UniProt P10520); test: viability-normalized secreted streptokinase activity reduction – plasminogen activation absorbance, OD405, dose response (AID 1914); assay type: functional, Streptococcus pyogenes M1 GAS;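 further: secreted streptokinase activity via plasminogen activation per viability signal from cell pellet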
T2 sequence (P10520 whole entry): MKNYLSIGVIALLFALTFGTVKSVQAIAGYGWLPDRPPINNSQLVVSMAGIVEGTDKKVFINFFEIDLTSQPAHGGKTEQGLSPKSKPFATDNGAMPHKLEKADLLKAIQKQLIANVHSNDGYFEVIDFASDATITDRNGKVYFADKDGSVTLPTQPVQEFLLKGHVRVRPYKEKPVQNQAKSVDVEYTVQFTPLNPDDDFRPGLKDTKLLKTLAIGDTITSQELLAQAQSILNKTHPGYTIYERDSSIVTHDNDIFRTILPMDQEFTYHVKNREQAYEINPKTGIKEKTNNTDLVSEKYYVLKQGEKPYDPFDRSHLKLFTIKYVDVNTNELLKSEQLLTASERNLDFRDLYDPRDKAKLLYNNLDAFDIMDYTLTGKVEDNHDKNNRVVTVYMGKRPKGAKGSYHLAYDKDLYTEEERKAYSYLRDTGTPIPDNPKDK

[3] = test system: Streptococcus sp. 'group A'; test: Streptococcus pyogenes SK(-)GAS viability under kanamycin – luminescence, BacTiterGlo, confirmation, counter-screen for streptokinase expression inhibitor project, dose response (AID 1900); assay type: functional, organism-based
[4] = Fluorescence Cell-Based Dose Response to Identify Inhibitors of Thrombin Receptor-Activating Peptide SFLLRN-Mediated P-Selectin Induction on Platelets. [Related pubchem assays: 1663 (Primary HTS), 1889 (retest at dose ), 1891 (counterscreen), 1678 (Project Summary)]; assay type: functional
Streptococcus [5] = test: GAS UMAA2166 growth inhibition – luminescence, BacTiterGlo, counter-screen for streptokinase expression inhibitor project, dose response (AID 1915); assay type: functional, organism-based;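 further: potency for reduction of bacterial viability or growth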
[6] = Luminescence Cell-Based Dose Confirmation HTS to Identify Inhibitors of Platelet Dense Granule Release. [Related pubchem assays: 1663 (Primary HTS), 1678 (Summary of Project)]; assay type: functional
[7] = blockers of HIV-1 envelope-mediated cell-cell fusion – cherry-pick, dose response (AID 652057); assay type: functional, cell-based
[8] = reduction of Shn3 3'UTR-driven luciferase in osteoblasts – cell-based, Clone20 osteoblasts, firefly luciferase, cherry-picked, dose response (AID 624132); assay type: functional;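 further: firefly luciferase luminescence from reporter carrying the Shn3 3'UTR in osteoblasts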
Galanin receptor type 2 = Galanin receptor type 2 (Homo sapiens, UniProt O43603); test: Dose Response cell-based high-throughput screening assay to identify antagonists of galanin receptor 2 (GALR2). [Related pubchem assays: 828, 866 ]; assay type: functional
Galanin receptor type 2, sequence (O43603 whole entry, the tested form may be a part): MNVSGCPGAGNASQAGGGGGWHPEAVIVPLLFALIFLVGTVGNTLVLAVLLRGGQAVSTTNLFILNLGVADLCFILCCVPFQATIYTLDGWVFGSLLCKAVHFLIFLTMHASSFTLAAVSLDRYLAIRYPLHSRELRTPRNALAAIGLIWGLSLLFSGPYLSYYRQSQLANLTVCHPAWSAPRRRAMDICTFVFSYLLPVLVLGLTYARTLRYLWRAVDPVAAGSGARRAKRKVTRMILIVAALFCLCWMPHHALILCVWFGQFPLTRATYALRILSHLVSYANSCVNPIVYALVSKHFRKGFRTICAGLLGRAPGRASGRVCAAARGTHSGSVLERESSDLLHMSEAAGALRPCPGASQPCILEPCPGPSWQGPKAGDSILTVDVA

[9] = blockers of HIV-1 ZM109 envelope-driven cell-cell fusion – HeLa effector, CEM target cells, luciferase, cherry-pick, dose response (AID 652058); assay type: functional, cell-based;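 further: luciferase signal from HIV-1 Env mediated cell-cell fusion of effector and target cells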
[10] = HIV-1 AD8 envelope cell-cell fusion blockers – cherry-pick, dose response (AID 652062); assay type: functional, cell-based;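 further: luciferase signal from cell-cell fusion driven by HIV-1 clade B AD8 Env; potency is for inhibitors of fusion seen as a drop in luminescence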
[11] = loss of viability in HepG2 cells – cell-based, CellTiter-Glo, cherry-picked, cytotoxicity control for Shn3 inhibitor project, dose response (AID 624134); assay type: functional
[12] = HEK-293T viability loss, compound-treated – cell-based, uHTS hits, cytotoxicity control for B/T-cell NF-kB inhibitor project, dose response (AID 489019); assay type: functional;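 further: IC50 reflects cytotoxicity as loss of cell viability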
INS1 = test: INS-1E survival protection against cytokine death – cell-based, luminescence, retest, dose response (AID 449756); assay type: functional; details: Rattus norvegicus;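 further: cell death triggered by IL-1 beta plus TNF-alpha plus IFN-gamma mixture; protective hits raise ATP signal compared with cytokine alone wells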
[13] = off-target signal loss in HeLa-CEM21 co-culture – HeLa F-luc CTL cells, cherry-picked, counter-screen for HIV-1 Env fusion inhibitor project, dose response (AID 652040); assay type: functional, cell-based;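 further: potency for signal decrease marking cytotoxic or nonspecific inhibition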
[14] = viability loss in CEM21 cells – cell-based, plate reader, dry powder, cytotoxicity control, dose response (AID 687026); assay type: functional
Jurkat = test: blockers of NF-kB activation in T cells – Jurkat, luciferase reporter, luminescence, B- and T-cell, dose response (AID 489004); assay type: functional, cell-based; details: Homo sapiens;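 further: NF-kB luciferase reporter Jurkat cells stimulated with PMA plus ionomycin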
[15] = target: COUP transcription factor 2 (Homo sapiens, UniProt P24468); test: Luminescence-based cell-based high throughput dose response assay to identify inhibitors of COUP-TFII (NR2F2).; assay type: functional;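 further: HEK293 cells transiently cotransfected with COUP-TFII expression vector and reporter; luciferase reporter luminescence driven by COUP-TFII from the pX2-168 reporter plasmid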
COUP transcription factor 2, sequence (P24468 whole entry): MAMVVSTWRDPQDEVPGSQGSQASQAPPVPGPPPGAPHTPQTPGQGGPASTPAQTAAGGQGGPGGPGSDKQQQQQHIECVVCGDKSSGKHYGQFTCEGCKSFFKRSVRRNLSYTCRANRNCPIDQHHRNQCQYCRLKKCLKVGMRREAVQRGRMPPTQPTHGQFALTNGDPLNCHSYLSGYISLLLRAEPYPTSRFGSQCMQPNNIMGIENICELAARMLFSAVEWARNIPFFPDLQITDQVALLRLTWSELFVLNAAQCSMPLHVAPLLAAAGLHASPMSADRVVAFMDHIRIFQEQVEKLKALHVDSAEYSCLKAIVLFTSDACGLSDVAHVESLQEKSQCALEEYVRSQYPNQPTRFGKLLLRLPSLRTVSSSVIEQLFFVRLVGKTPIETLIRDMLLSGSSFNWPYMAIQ

[16] = non-specific 3'UTR reporter inhibition in Clone20-Shn3RL – cell-based, Renilla luciferase, cherry-picked, counter-screen for Shn3 inhibitor project, dose response (AID 624133); assay type: functional
[17] = Late stage assay provider results from the probe development effort to identify selective inhibitors of heat shock protein 90 (HSP90): Absorbance-based cell proliferation assay in MCF7 cells.; assay type: functional
[18] = viability loss in HEK293 kidney cells – cell-based, cherry-picks, set 5, cytotoxicity control, dose response (AID 1053117); assay type: functional
[19] = blockers of FN fibrillogenesis by fibroblasts – AH1F cells, Alexa488-FN fluorescence, cherry-picks, dose response (AID 1035475); assay type: functional, cell-based
[20] = target: T1, Luciferin 4-monooxygenase; test: Counter Screen for Luciferase-based Assay Positives. [Related pubchem assays: 620, 618, 411 ]
[21] = Late stage assay provider results from the probe development effort to identify selective inhibitors of heat shock protein 90 (HSP90): Absorbance-based cell proliferation assay in SKBR3 cells.; assay type: functional; details: SK-BR-3
HT-1080 = test: HT1080 cell viability loss – fluorescence readout (AID 620); assay type: functional, cell-based; details: Homo sapiens
Streptokinase A [22] = target: T2, Streptokinase A; test: Absorbance Microorganism-Based Dose Response Follow up to Identify Inhibitors of Streptokinase Expression. [Related pubchem assays: 1677 (Project Summary), 1915, 1914, 1902 (Retest at Dose), 1900 (Counter Screen), 1662 (Primary HTS)]; assay type: functional, Streptococcus pyogenes M1 GAS
Streptococcus [23] = test: GAS bacterial viability reduction – luminescence, BacTiter-Glo, strain UMAA2166, counter-screen for streptokinase expression inhibitor project, dose response (AID 2477); assay type: functional, organism-based
[24] = target: Lytic switch protein BZLF1 (Epstein-Barr virus (strain B95-8) (HHV-4) (Human herpesvirus 4), UniProt P03206); test: inhibition of BZLF1 ZTA DNA binding – biochemical, fluorescence polarization, Epstein-Barr virus, 1536-well, counter-screen for EBNA-1 inhibitor project, dose response (AID 2377); set-up: species or system human gammaherpesvirus 4;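 further: fluorescence polarization of Cy5-labelled ZRE DNA probe bound by purified Zta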
Lytic switch protein BZLF1, sequence (P03206 whole entry): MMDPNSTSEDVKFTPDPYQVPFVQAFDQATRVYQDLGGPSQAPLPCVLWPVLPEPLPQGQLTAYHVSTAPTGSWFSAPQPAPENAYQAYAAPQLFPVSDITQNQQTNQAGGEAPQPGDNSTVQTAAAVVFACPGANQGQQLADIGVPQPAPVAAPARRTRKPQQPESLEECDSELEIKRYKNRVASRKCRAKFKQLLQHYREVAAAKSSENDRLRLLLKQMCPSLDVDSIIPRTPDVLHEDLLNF

[25] = target: Epstein-Barr nuclear antigen 1 (Epstein-Barr virus (strain B95-8) (HHV-4) (Human herpesvirus 4), UniProt P03211); test: inhibition of EBV nuclear antigen 1 DNA binding – biochemical, fluorescence polarization, 1536-well, dose response (AID 2381); set-up: species or system human gammaherpesvirus 4;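 further: fluorescence polarization of a Cy5 DNA probe bound by EBNA-1 protein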
Epstein-Barr nuclear antigen 1, sequence (P03211 whole entry): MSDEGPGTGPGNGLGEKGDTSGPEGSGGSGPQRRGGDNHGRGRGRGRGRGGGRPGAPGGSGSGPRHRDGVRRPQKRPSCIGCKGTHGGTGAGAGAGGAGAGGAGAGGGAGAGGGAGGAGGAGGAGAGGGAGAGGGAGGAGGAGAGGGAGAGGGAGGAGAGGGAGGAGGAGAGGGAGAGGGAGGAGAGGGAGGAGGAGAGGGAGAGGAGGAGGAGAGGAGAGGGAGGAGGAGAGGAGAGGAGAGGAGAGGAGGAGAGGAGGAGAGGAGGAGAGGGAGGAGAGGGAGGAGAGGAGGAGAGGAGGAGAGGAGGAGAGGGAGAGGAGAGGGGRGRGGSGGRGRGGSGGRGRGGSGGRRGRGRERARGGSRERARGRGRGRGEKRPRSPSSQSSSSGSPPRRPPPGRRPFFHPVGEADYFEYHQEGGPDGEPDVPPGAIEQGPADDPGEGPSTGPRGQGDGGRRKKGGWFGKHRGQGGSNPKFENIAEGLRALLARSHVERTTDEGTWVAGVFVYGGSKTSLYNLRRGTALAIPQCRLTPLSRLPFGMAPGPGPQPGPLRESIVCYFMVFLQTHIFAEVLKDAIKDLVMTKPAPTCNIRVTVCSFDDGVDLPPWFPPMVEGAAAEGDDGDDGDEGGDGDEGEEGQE

[26] = target: Transitional endoplasmic reticulum ATPase (Homo sapiens, UniProt P55072); test: Luminescence dose response biochemical high throughput screening assay for inhibitors of the p97 ATPase: synthesized compounds. [Related pubchem assays: 1481, 1517 ]
Transitional endoplasmic reticulum ATPase (Homo sapiens, UniProt P55072), sequence (P55072 whole entry): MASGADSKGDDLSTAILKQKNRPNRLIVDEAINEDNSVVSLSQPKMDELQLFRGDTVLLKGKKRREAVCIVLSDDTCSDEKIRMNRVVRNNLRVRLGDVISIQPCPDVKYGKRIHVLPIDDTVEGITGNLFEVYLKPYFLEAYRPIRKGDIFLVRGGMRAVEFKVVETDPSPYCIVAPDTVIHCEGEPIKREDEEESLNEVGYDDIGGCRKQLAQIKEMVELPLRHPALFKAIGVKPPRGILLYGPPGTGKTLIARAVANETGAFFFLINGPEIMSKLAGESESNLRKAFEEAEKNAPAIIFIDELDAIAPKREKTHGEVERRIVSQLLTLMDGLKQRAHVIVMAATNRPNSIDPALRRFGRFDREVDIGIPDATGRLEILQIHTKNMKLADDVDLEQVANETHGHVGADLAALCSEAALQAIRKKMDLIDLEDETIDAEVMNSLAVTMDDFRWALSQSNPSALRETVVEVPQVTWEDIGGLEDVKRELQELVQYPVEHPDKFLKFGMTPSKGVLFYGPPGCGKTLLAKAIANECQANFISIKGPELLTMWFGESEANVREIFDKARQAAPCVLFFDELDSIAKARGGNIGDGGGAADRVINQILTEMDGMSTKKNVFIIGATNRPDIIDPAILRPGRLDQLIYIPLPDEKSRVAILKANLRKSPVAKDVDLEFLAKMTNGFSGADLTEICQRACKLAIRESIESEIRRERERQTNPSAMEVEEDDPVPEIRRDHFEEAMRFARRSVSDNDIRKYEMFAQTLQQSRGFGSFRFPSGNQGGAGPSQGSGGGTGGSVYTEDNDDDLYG

[27] = target: Transitional endoplasmic reticulum ATPase (Homo sapiens, UniProt P55072, C522A); test: Luminescence counterscreen assay for p97 inhibitors: dose response biochemical high throughput screening assay to identify inhibitors of the C522A mutant p97 ATPase: synthesized compounds. [Related pubchem assays: 1481, 1517, 1551 ]
Transitional endoplasmic reticulum ATPase (Homo sapiens, UniProt P55072, C522A), sequence (P55072 2-806 C522A limits assumed): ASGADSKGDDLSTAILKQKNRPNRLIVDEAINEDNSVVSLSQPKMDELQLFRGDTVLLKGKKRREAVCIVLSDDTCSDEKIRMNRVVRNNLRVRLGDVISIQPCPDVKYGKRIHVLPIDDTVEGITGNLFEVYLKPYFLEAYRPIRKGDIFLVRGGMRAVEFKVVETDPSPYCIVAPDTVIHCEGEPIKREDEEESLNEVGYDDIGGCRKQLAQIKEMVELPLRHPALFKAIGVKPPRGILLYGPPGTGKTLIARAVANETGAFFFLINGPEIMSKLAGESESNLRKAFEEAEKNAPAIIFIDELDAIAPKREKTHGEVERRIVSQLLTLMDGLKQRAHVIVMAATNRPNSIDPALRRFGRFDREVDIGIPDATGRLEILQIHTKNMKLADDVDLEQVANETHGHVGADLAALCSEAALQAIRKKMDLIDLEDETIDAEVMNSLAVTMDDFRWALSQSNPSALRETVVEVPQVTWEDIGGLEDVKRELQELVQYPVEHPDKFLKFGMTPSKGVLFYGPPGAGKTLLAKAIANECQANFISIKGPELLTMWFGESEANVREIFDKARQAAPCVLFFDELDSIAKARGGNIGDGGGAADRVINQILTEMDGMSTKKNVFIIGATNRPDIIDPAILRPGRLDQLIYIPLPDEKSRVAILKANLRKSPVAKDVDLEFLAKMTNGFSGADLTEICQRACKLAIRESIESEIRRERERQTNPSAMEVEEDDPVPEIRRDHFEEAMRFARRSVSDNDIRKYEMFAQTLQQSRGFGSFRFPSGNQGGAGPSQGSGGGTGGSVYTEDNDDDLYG

[28] = target: Peroxisome proliferator-activated receptor gamma/Nuclear receptor corepressor 2 (Homo sapiens, UniProt P37231+Q9Y618); test: Counterscreen for NR2E3 inverse agonists: TR-FRET-based biochemical high throughput dose response assay to identify inverse agonists of the interaction between peroxisome proliferator-activated receptor gamma (PPARg) and nuclear receptor co-repressor 2 (NCOR2).; assay type: functional
[29] = target: Photoreceptor-specific nuclear receptor (Homo sapiens, UniProt Q9Y5X4); test: ligands suppressing NR2E3 nuclear receptor activity – biochemical, TR-FRET, dose response (AID 463256); assay type: functional
Photoreceptor-specific nuclear receptor, sequence (Q9Y5X4 whole entry): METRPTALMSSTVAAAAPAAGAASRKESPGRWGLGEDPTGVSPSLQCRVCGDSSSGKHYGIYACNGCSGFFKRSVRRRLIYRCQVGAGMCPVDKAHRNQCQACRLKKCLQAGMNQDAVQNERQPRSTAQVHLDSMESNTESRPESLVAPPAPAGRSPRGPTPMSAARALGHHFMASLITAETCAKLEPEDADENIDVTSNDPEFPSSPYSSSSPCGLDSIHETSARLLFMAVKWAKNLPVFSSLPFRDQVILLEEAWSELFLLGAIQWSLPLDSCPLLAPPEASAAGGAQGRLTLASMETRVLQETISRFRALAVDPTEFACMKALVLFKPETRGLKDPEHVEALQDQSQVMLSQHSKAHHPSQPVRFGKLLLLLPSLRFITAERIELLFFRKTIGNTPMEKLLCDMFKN

[30] = inhibition of ADAM10 peptide cleavage – biochemical, FRET peptide substrate, recombinant human ADAM10, selectivity assay for ADAM17 exosite inhibitor project, dose response (AID 743259);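 further: ADAM10 enzyme cleaving a FRET peptide substrate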
[31] = target: Disintegrin and metalloproteinase domain-containing protein 17 (Homo sapiens, UniProt P78536); test: exosite inhibitors of ADAM17, dose response, biochemical (AID 743260)
[32] = target: T3, RNA-binding protein pos-1 (Caenorhabditis elegans, UniProt G5EF15); test: disruptors of C. elegans POS-1 RNA interaction – biochemical, fluorescence polarization, dose response (AID 1964);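 further: purified POS-1 fused to maltose binding protein made in E. coli; potency of compounds blocking POS-1 binding to fluorescent RNA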
T3 sequence (G5EF15 whole entry): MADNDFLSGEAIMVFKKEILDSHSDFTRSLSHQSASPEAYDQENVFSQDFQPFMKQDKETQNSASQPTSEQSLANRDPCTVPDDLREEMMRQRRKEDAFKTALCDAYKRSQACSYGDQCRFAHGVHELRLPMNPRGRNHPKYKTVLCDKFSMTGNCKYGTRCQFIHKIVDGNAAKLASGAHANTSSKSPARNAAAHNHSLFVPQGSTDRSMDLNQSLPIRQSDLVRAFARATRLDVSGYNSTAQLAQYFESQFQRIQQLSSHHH

[33] = antibacterial activity against E. coli NEB5alpha – luminescence, counter-screen for MEX-5/POS-1 RNA-binding inhibitor project, dose response (AID 1959); assay type: functional
[34] = mitochondrial function rescue without frataxin homolog – Friedreich's ataxia, plus single-dose screen, dose response (AID 1465); assay type: functional;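 further: yeast depleted of Yfh1p frataxin homolog grown on glycerol needing respiration; WST-1 tetrazolium dye reduction as measure of cellular dehydrogenase metabolic activity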
Estrogen receptor = target: T4, Estrogen receptor (Homo sapiens, UniProt P03372); test: ERα coactivator recruitment enhancers – biochemical, TR-FRET, ERα LBD, dose response (AID 737)
T4 sequence (P03372 whole entry): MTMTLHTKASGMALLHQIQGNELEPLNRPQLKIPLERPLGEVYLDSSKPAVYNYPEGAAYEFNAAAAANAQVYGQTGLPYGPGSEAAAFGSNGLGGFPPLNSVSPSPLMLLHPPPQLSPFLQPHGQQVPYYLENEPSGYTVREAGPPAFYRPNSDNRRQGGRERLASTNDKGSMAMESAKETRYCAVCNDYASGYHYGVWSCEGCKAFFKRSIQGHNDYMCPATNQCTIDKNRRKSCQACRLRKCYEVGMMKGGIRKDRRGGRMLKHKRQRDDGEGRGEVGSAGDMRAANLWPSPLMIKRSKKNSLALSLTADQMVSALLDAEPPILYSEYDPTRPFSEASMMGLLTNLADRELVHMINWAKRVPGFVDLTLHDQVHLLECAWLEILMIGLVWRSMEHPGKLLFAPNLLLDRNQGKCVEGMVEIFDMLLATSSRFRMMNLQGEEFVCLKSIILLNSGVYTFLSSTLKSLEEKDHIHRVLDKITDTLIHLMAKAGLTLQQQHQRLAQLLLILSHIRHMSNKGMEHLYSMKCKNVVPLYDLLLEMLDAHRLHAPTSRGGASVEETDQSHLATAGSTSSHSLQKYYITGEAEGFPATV

T1 sequence (P08659 whole entry): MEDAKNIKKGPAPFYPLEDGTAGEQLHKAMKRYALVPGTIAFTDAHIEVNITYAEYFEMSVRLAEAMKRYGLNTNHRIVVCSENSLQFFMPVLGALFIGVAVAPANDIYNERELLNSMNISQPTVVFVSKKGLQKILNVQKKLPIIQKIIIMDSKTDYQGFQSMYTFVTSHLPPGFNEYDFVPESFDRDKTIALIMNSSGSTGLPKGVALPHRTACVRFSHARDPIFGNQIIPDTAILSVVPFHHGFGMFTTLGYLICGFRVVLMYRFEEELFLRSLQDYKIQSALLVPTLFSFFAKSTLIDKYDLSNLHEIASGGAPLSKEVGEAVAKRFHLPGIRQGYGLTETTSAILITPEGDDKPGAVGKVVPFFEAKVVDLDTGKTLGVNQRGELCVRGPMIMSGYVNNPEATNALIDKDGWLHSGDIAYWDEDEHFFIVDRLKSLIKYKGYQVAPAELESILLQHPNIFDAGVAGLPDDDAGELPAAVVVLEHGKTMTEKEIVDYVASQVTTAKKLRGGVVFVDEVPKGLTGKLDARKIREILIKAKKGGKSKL

Q: What does the source list for `CC(=O)Oc1ccc(-c2nc(-c3cccnc3)no2)cc1`?
A: EC50 [1]: 8.16 µM (active); EC50 (Streptokinase A [2]): > 150 µM (not active); EC50 [3]: 4.89 µM (active); EC50 [4]: 30 µM (not active); EC50 (Streptococcus [5]): 17.3 µM (active); EC50 [6]: < 0.701 µM (active)

Q: With `CCOc1ccc(S(=O)(=O)NCc2ccncc2)cc1` as the molecule, how does the AC50 [7] read?
A: 1.36 µM (active)

Q: And the AC50 [8]?
A: 261 nM (active)

Q: What about the IC50 (Galanin receptor type 2) of the same molecule?
A: > 42 µM (not active)

Q: What about the AC50 [9] of the same molecule?
A: < 260 nM (active)

Q: What about the AC50 [10] of the same molecule?
A: 2.72 µM (active)

Q: What about the AC50 [11] of the same molecule?
A: 603 nM (active)

Q: What about the IC50 [12] of the same molecule?
A: > 80 µM (inactive)

Q: What about the AC50 (INS1) of the same molecule?
A: 1.08 µM (active)

Q: What about the AC50 [13] of the same molecule?
A: > 70 µM (inactive)

Q: What about the AC50 [14] of the same molecule?
A: > 70 µM (inactive)

Q: What about the IC50 (Jurkat) of the same molecule?
A: > 80 µM (inactive)

Q: And the IC50 [15]?
A: 2.27 µM (active)

Q: And the AC50 [16]?
A: 10.5 µM (active)

Q: Which IC50 [17] does the source give for `CC(C)CNC(=O)c1coc(=O)c(Br)c1` here?
A: 7.5 µM (active)

Q: What about the AC50 [18] of the same molecule?
A: > 52 µM (inactive)

Q: What about the AC50 [19] of the same molecule?
A: 23.9 µM (active)

Q: What about the EC50 [20] of the same molecule?
A: 1.83 µM (active)

Q: And the IC50 [21]?
A: 22 µM (inactive)

Q: What about the EC50 (HT-1080) of the same molecule?
A: 20.4 µM (active)

Q: For `CCCOc1ccc(-c2nc(Oc3ccccc3)c3ccccc3n2)cc1`, which EC50 (Streptokinase A [22]) is on record?
A: 71.6 µM (active)

Q: And the EC50 (Streptococcus [23])?
A: > 500 µM (not active)

Q: Which results are given for `COC(=O)c1ccc2nc(NC(=O)CCS(=O)(=O)c3ccccc3)sc2c1`?
A: IC50 [24]: > 111 µM (not active); IC50 [25]: 39 µM (not active)

Q: Which IC50 [26] does the source give for `CCOC(=O)/C(C#N)=C/c1ccc([N+](=O)[O-])cc1` here?
A: > 50 µM (not active)

Q: And the IC50 [27]?
A: > 50 µM (not active)

Q: Which IC50 [28] does the source give for `CCCS(=O)(=O)N1CCC(C(=O)NCCCN(CC)c2cccc(C)c2)CC1` here?
A: > 4.43 µM (active)

Q: What about the IC50 [29] of the same molecule?
A: > 4.43 µM (active)

Q: What does the source list for `CCOc1ccc(N/N=C2/C(=O)Nn3c2nc(C)cc3=O)cc1`?
A: EC50 [1]: 0.535 µM (active); IC50 [30]: 24.7 µM (inactive); IC50 [31]: > 69.5 µM (inactive); EC50 [32]: 213 µM (active); EC50 [33]: 16.2 µM (active); EC50 [34]: > 100 µM (active); EC50 [6]: 9.37 µM (active)

Q: With `C[C@]12CC[C@@H]3c4ccc(O)cc4C(=O)C[C@H]3[C@@H]1CC[C@@H]2O` as the molecule, how does the EC50 (Estrogen receptor) read?
A: 12.5 µM (active)
